Test results: ChEMBL document CHEMBL5143508, “Design, synthesis and biological evaluation of novel o-aminobenzamide derivatives as potential anti-gastric cancer agents in vitro and in vivo” (Eur J Med Chem, 2022)
Activity calls are given as the source filed them. The calls are words filed in the database; no cut-off is given here.

Tests used:
[1] = test system: MGC-803; test: Induction of apoptosis in human MGC-803 cells assessed as viable cells at 10 uM incubated for 48 hrs by annexin V FITC/propidium iodide staining based flow cytometry (reference value: 94.4 %); type: functional; conditions: read-out: Activity
[2] = test system: HGC-27; test: Anti-invasion activity against human HGC-27 cells assessed as inhibition of invasion incubated for 24 hrs by transwell invasion assay; type: functional, cell-based; conditions: dose 0.05-2 µM, DDE = dose-dependent effect
[3] = test system: HGC-27; test: Induction of cell cycle arrest in human HGC-27 cells assessed as downregulation of cyclin A expression incubated for 48 hrs by Western blot analysis; type: functional, cell-based; conditions: dose 0.1-8 µM
[4] = test system: MGC-803; test: Induction of apoptosis in human MGC-803 cells assessed as early apoptotic cells at 10 uM incubated for 48 hrs by annexin V FITC/propidium iodide staining based flow cytometry (reference value: 0.42 %); type: functional
[5] = test system: HGC-27; test: Induction of apoptosis in human HGC-27 cells assessed as reduction in caspase-3 level incubated for 48 hrs by Western blot analysis; type: functional, cell-based; conditions: dose 0.1-8 µM, DDE = dose-dependent effect
[6] = test system: HGC-27; test: Induction of apoptosis in human HGC-27 cells assessed as upregulation in cleaved PARP expression at 0.5 to 8 uM incubated for 48 hrs by Western blot analysis; type: functional, cell-based; conditions: dose 0.5-8 µM
[7] = test system: MGC-803; test: Anti-invasion activity against human MGC-803 cells assessed as inhibition of invasion incubated for 24 hrs by transwell invasion assay; type: functional, cell-based; conditions: dose 1.25-10 µM, DDE = dose-dependent effect
[8] = test system: HGC-27; test: Induction of cell cycle arrest in human HGC-27 cells assessed as downregulation of CDK1 expression incubated for 48 hrs by Western blot analysis; type: functional, cell-based; conditions: dose 0.1-8 µM
[9] = test system: HGC-27; test: Induction of apoptosis in human HGC-27 cells assessed as viable cells at 2 uM incubated for 48 hrs by annexin V FITC/propidium iodide staining based flow cytometry (reference value: 93.0 %); type: functional; conditions: read-out: Activity
[10] = test system: HGC-27; test: Induction of cell cycle arrest in human HGC-27 cells assessed as downregulation of CDK2 expression incubated for 48 hrs by Western blot analysis; type: functional, cell-based; conditions: dose 0.1-8 µM
[11] = Tmax in Sprague-Dawley rat at 100 mg/kg, po measured up to 24 hrs by LC-MS/MS analysis; type: ADME, organism-based; conditions: in vivo
[12] = test system: MGC-803; test: Induction of apoptosis in human MGC-803 cells assessed as viable cells at 5 uM incubated for 48 hrs by annexin V FITC/propidium iodide staining based flow cytometry (reference value: 94.4 %); type: functional; conditions: read-out: Activity
[13] = test system: MGC-803; test: Induction of apoptosis in human MGC-803 cells assessed as late apoptotic cells at 5 uM incubated for 48 hrs by annexin V FITC/propidium iodide staining based flow cytometry (reference value: 4.07 %); type: functional
[14] = test system: HGC-27; test: Antiproliferative activity against human HGC-27 cells measured after 24 hrs by […]; type: functional, cell-based; conditions: HGC-27, 24 h
[15] = test system: HGC-27; test: Induction of morphological changes in human HGC-27 cells assessed as chromatin condensation incubated for 36 hrs by Giemsa staining based microscopic analysis; type: functional, cell-based; conditions: dose 0.1-8 µM
[16] = test system: HGC-27; test: Induction of cell cycle arrest in human HGC-27 cells assessed as downregulation of cyclin B1 expression incubated for 48 hrs by Western blot analysis; type: functional, cell-based; conditions: dose 0.1-8 µM
[17] = test system: MGC-803; test: Inhibition of cell migration in human MGC-803 cells measured after 24 hrs by wound healing assay; type: functional, cell-based; conditions: dose 1.25-10 µM, DDE = dose-dependent effect
[18] = test system: MGC-803; test: Induction of apoptosis in human MGC-803 cells assessed as late apoptotic cells at 10 uM incubated for 48 hrs by annexin V FITC/propidium iodide staining based flow cytometry (reference value: 4.07 %); type: functional
[19] = MRT (0 to t) in Sprague-Dawley rat at 100 mg/kg, po measured up to 24 hrs by LC-MS/MS analysis; type: ADME, organism-based; conditions: in vivo
[20] = Cmax in Sprague-Dawley rat at 100 mg/kg, po measured up to 24 hrs by LC-MS/MS analysis; type: ADME, organism-based; parameters: dose 100 mg/kg, time < 24 hrs, route po; conditions: in vivo
[21] = test system: HGC-27; test: Induction of morphological changes in human HGC-27 cells assessed as cytomembrane foaming incubated for 36 hrs by Giemsa staining based microscopic analysis; type: functional, cell-based; conditions: dose 0.1-8 µM
[22] = test system: MGC-803; test: Induction of morphological changes in human MGC-803 cells assessed as chromatin condensation incubated for 36 hrs by Giemsa staining based microscopic analysis; type: functional, cell-based; conditions: dose 2.5-20 µM
[23] = test system: HGC-27; test: Induction of apoptosis in human HGC-27 cells assessed as reduction in Bcl-2 level incubated for 48 hrs by Western blot analysis; type: functional, cell-based; conditions: dose 0.1-8 µM, DDE = dose-dependent effect
[24] = test system: MGC-803; test: Induction of apoptosis in human MGC-803 cells assessed as necrotic cells at 5 uM incubated for 48 hrs by annexin V FITC/propidium iodide staining based flow cytometry (reference value: 1.06 %); type: functional
[25] = test system: MGC-803; test: Induction of apoptosis in human MGC-803 cells assessed as necrotic cells at 10 uM incubated for 48 hrs by annexin V FITC/propidium iodide staining based flow cytometry (reference value: 1.06 %); type: functional
[26] = test system: MGC-803; test: Induction of morphological changes in human MGC-803 cells assessed as cytomembrane foaming incubated for 36 hrs by Giemsa staining based microscopic analysis; type: functional, cell-based; conditions: dose 2.5-20 µM
[27] = test system: HGC-27; test: Induction of apoptosis in human HGC-27 cells assessed as reduction in caspase-9 level incubated for 48 hrs by Western blot analysis; type: functional, cell-based; conditions: dose 0.1-8 µM, DDE = dose-dependent effect
[28] = Half life in Sprague-Dawley rat at 100 mg/kg, po measured up to 24 hrs by LC-MS/MS analysis; type: ADME, organism-based; conditions: in vivo
[29] = AUC (0 to t) in Sprague-Dawley rat at 100 mg/kg, po measured up to 24 hrs by LC-MS/MS analysis; type: ADME, organism-based; parameters: dose 100 mg/kg, time < 24 hrs, route po; conditions: in vivo
[30] = test system: HGC-27; test: Inhibition of cell migration in human HGC-27 cells measured after 24 hrs by wound healing assay; type: functional, cell-based; conditions: dose 0.05-2 µM, DDE = dose-dependent effect
[31] = test system: MGC-803; test: Induction of apoptosis in human MGC-803 cells assessed as early apoptotic cells at 5 uM incubated for 48 hrs by annexin V FITC/propidium iodide staining based flow cytometry (reference value: 0.42 %); type: functional
[32] = Toxicity in BALB/c mouse xenografted with human HGC-27 cells assessed as hematocrit level at 150 mg/kg, po bid for 19 days; type: organism-based; conditions: in vivo, 456 h, time 19 day
[33] = test system: MGC-803; test: Induction of apoptosis in human MGC-803 cells assessed as viable cells at 20 uM incubated for 48 hrs by annexin V FITC/propidium iodide staining based flow cytometry (reference value: 94.4 %); type: functional; conditions: read-out: Activity
[34] = test system: HGC-27; test: cells; type: functional, cell-based; conditions: Homo sapiens, HGC-27, 72 h
Description: Cytotoxicity against human HGC-27 cells assessed as inhibition of cell growth incubated for 72 hrs by MTT assay

[35] = test system: HGC-27; test: Induction of apoptosis in human HGC-27 cells assessed as late apoptotic cells at 0.4 uM incubated for 48 hrs by annexin V FITC/propidium iodide staining based flow cytometry (reference value: 5.14 %); type: functional
[36] = Toxicity in BALB/c mouse xenografted with human HGC-27 cells assessed as hematocrit level at 75 mg/kg, po bid for 19 days; type: organism-based; conditions: in vivo, 456 h, time 19 day
[37] = test system: MGC-803; test: Induction of apoptosis in human MGC-803 cells assessed as necrotic cells at 20 uM incubated for 48 hrs by annexin V FITC/propidium iodide staining based flow cytometry (reference value: 1.06 %); type: functional
[38] = test system: HGC-27; test: Induction of apoptosis in human HGC-27 cells assessed as necrotic cells at 1.6 uM incubated for 48 hrs by annexin V FITC/propidium iodide staining based flow cytometry (reference value: 1.24 %); type: functional

Structure (SMILES)	viability at 10 µM [1]	Activity [2]	Activity [3]	Activity [4]	Activity [5]	Activity [7]	Activity [8]	Activity [10]	Tmax [11]	viability at 5 µM [12]	Activity [13]	IC50 [14]	Activity [15]	Activity [16]	inhibition [17]	Activity [18]	MRT last at 24 h [19]	Cmax [20]	Activity [21]	Activity [22]	other results
O=C(NCc1ccc(NC(=O)c2ccccc2N2CCCC2)cc1)OCc1cccnc1	59.4%	Dde	Active	19.1%	Dde	Dde	Active	Active	0.5 h	65%	17%	1840 nM	Active	Active	Dde	18.2%	1.88 h	4090 ng/mL	Active	Active	Activity [6]: Active; viability at 2 µM [9]: 30.4%; Activity [23]: Dde; Activity [24]: 2.47%; Activity [25]: 3.27%; Activity [26]: Active; Activity [27]: Dde; half-life [28]: 1.56 h; AUC(0-t) at 24 h [29]: 4720 ng·h/mL; inhibition [30]: Dde; Activity [31]: 15.5%
O=C(NCc1ccc(NC(=O)c2cc(F)ccc2N2CCCC2)cc1)OCc1cccnc1	82%	Dde	Active	7.31%	Dde	Dde	Active	Active	1.2 h	81.1%	10.4%	280 nM	Active	Active	Dde	8.86%	4.25 h	3980 ng/mL	Active	Active	Activity [32]: 55.38%; viability at 20 µM [33]: 60.7%; IC50 [34]: 280 nM; Activity [35]: 21.3%; Activity [36]: 58.3%; Activity [23]: Dde; Activity [37]: 2.74%; Activity [24]: 5.22%; Activity [25]: 1.84%; Activity [26]: Active; Activity [27]: Dde; Activity [38]: 16.9%; half-life [28]: 2.5 h; AUC(0-t) at 24 h [29]: 7310 ng·h/mL; inhibition [30]: Dde; Activity [31]: 3.23%
